{"source": "paper PMC11305387", "about": "“AlphaFold accelerated discovery of psychotropic agonists targeting the trace amine–associated receptor 1” (Science Advances, 2024)", "key": {"[1]": {"test": "In vivo pharmacokinetics, plasma and brain", "parameters": "species or system mice", "procedure": "Brains were collected and snap-frozen. Blood was sampled from the cervical vein upon decapitation in Eppendorf tubes containing 50 μl of 0.5 M EDTA and immediately centrifuged for 10 min at 3000g and 4°C. Isolated plasma was then transferred into clean polypropylene tubes. All samples were stored at −20°C before analysis.\nBrains were weighed and homogenized 1:3 (w/v) in PBS using a Minilys Bead Homogenizer (Bertin Instruments). […] Samples were precipitated with acetonitrile (1:4) containing warfarin as analytical internal standard. The supernatants were injected into the LC-MS/MS system consisting of a TQ-S micro mass spectrometer coupled to an Acquity UPLC (Waters Corp, MA, USA). […] The obtained concentrations of brain homogenate samples were multiplied by 4 to account for the dilution during preparation of the homogenate. Pharmacokinetic parameters were determined from the experimental data by applying non-compartmental analysis using Microsoft Excel spreadsheet. The brain-to-plasma partition coefficient (Kp,brain) was calculated as the ratio of the area under the concentration–time curves (AUC) in brain versus plasma (AUCbrain/AUCplasma)."}, "hTAAR1": {"molecular_target": "T1, hTAAR1 (Homo sapiens, UniProt Q96RJ0)", "T1 construct": "expressed in transfected cells; host or cells: Expi293F", "T1 sequence (Q96RJ0 1-339)": "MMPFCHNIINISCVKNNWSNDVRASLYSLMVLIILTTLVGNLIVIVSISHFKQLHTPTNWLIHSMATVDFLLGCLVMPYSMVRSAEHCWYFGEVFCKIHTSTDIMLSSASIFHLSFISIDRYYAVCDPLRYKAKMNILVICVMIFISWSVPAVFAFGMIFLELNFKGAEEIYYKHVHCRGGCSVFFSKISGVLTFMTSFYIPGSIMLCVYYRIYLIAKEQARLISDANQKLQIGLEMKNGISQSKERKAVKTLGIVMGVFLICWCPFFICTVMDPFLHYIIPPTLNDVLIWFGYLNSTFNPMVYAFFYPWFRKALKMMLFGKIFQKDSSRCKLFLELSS", "test": "G protein (mini-Gs) recruitment luminescence complementation assay, agonist mode", "type": "cell-based", "procedure": "The 62 predicted ligands were purchased from commercial vendors and tested for activity at a concentration of 20 μM in a luminescence complementation–based assay measuring recruitment of mini-Gs to the human TAAR1 ([38]).\nTo monitor TAAR1 activation by compounds, we used our previously described system. […] Cells were then reseeded in solid white, 96-well plates (Corning) with 90 μl of cell suspension per well. Luminescence was read using a plate reader for 5 min (SPARK 10 M, Tecan) before the addition of compounds to ensure signal stability. Ten microliters of each compound diluted in DPBS was added, and luminescence from each well was read for 10 min, with 100-ms read time per well. The A2AR counter-screen was performed using the same protocol. In these experiments, the hTAAR1 was replaced by a C-terminally SmBiT-tagged hA2AR construct."}, "D2 receptor": {"molecular_target": "T2, D2 receptor (Homo sapiens, UniProt P14416)", "T2 construct": "TANGO fusion module (own knowledge, Kroeze et al.: C-terminal V2 tail, TEV site and tTA); 1000000068; host or cells: HTLA (HEK293-derived)", "T2 sequence (P14416 whole entry, the tested form may be a part)": "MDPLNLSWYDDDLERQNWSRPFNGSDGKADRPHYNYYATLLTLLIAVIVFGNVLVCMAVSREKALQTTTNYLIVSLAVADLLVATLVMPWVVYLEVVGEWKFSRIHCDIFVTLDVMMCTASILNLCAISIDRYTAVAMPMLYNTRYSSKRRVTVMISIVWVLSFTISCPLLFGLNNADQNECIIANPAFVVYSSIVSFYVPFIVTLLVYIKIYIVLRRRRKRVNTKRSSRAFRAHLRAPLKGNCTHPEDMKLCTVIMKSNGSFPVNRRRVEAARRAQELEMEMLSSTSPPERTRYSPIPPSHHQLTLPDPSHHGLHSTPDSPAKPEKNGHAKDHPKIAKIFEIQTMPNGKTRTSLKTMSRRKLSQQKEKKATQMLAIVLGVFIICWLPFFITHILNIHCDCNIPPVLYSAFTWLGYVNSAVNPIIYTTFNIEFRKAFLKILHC", "test": "cell-based", "type": "cell-based", "procedure": "Assessment of receptor activation by compounds at all human aminergic receptors were carried out using a modified version of the PRESTO-TANGO method. […] The plate was spun down, and 5 μl of a 1:25 dilution (in DPBS) of polyethylenimine (PEI) derivative (Transporter 5, Polysciences) was added (1:4 cDNA to PEI ratio) and incubated for 20 min at room temperature (RT). […] Luminescence signal was detected using a plate-reader (SPARK, Tecan) with 100-ms integration time and a 100-ms delay between well reads."}, "5-HT1A receptor": {"molecular_target": "T3, 5-HT1A receptor (Homo sapiens, UniProt P08908)", "T3 construct": "TANGO fusion module (own knowledge, Kroeze et al.: C-terminal V2 tail, TEV site and tTA); 1000000068; host or cells: HTLA (HEK293-derived)", "T3 sequence (P08908 1-422)": "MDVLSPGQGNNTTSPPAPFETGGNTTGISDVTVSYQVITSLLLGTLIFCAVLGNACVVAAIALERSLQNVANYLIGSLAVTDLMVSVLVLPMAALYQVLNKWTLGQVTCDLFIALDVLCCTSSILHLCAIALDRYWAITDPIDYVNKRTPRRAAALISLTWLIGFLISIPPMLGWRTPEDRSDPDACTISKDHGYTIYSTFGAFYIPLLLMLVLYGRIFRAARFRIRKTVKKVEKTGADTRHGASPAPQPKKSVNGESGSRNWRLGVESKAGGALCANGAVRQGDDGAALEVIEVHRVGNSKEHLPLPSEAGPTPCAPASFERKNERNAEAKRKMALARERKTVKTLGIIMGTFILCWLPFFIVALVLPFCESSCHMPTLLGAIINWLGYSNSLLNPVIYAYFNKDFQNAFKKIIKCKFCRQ", "test": "PRESTO-TANGO β-arrestin recruitment", "type": "cell-based", "conditions": "panel screen"}}}
{"smiles": "CC1=C(c2ccco2)CNCC1", "note": "[Compound 65]", "values": [{"measurement": "Clearance", "setting": "[1]; after intraperitoneal administration, 1 mg/kg, mice, estimated", "value": 225, "unit": "ml/min per kg"}, {"measurement": "brain concentration by 4 hours", "setting": "[1]; below lower limit of quantification, mice, i.p. 1 mg/kg", "value": "< 40", "unit": "pmol/g"}, {"measurement": "Kp", "setting": "[1]; male, C57BL/6, mouse, brain and plasma, intraperitoneal, 1 mg/kg, total concentrations, AUCbrain/AUCplasma, read-out: brain-to-plasma partition coefficient Kp,brain", "value": 7.9}, {"measurement": "half-life", "setting": "[1]; male, C57BL/6, mouse, ip, plasma, mice, intraperitoneal 1 mg/kg", "value": 17, "unit": "min"}, {"measurement": "concentration at 4 h", "setting": "[1]; male, C57BL/6, mouse, plasma, ip, below lower limit of quantification, mice, i.p. 1 mg/kg", "value": "< 5", "unit": "nM"}, {"measurement": "Cmax", "setting": "[1]; male, C57BL/6, mouse, plasma, ip, mice, intraperitoneal 1 mg/kg, read-out: maximum plasma concentration (Cmax)", "value": "850 ± 172", "unit": "nM"}, {"measurement": "Tmax", "setting": "[1]; male, C57BL/6, mouse, plasma, ip, mice, intraperitoneal 1 mg/kg, read-out: time to maximum plasma concentration", "value": "≤ 5", "unit": "min"}, {"measurement": "maximum concentration in brain", "setting": "[1]; mice, intraperitoneal 1 mg/kg", "value": "4707 ± 766", "unit": "pmol/g"}, {"measurement": "time to maximum brain concentration", "setting": "[1]; mice, intraperitoneal 1 mg/kg", "value": "≤ 5", "unit": "min"}, {"measurement": "volume of distribution (V)", "setting": "[1]; mice, intraperitoneal 1 mg/kg", "value": 6.3, "unit": "L/kg"}, {"measurement": "EC50", "setting": "hTAAR1; TAAR1, G protein recruitment assay, read-out: pEC50 (converted)", "value": 25.1, "unit": "nM"}, {"measurement": "fold more potent than Ulotaront", "setting": "hTAAR1; TAAR1 G protein recruitment", "value": "> 25", "unit": "fold"}, {"measurement": "EC50", "setting": "D2 receptor; concentration-response curves", "value": "> 1000", "unit": "nM"}, {"measurement": "Emax", "setting": "D2 receptor; concentration-response curves", "value": 59, "unit": "%"}, {"measurement": "agonism at the D2 receptor", "setting": "D2 receptor; panel screen", "value": "agonism"}, {"measurement": "activation of 5-HT1A receptor", "setting": "5-HT1A receptor", "value": "did not observe a considerable activation"}]}
